This note sets out measurements from US9776995B2, “Bicyclic sulfonamide compounds as sodium channel inhibitors” (AMGEN INC., priority 2013, dated 2017).

Sequence of Nav 1.5 (Q14524 whole entry): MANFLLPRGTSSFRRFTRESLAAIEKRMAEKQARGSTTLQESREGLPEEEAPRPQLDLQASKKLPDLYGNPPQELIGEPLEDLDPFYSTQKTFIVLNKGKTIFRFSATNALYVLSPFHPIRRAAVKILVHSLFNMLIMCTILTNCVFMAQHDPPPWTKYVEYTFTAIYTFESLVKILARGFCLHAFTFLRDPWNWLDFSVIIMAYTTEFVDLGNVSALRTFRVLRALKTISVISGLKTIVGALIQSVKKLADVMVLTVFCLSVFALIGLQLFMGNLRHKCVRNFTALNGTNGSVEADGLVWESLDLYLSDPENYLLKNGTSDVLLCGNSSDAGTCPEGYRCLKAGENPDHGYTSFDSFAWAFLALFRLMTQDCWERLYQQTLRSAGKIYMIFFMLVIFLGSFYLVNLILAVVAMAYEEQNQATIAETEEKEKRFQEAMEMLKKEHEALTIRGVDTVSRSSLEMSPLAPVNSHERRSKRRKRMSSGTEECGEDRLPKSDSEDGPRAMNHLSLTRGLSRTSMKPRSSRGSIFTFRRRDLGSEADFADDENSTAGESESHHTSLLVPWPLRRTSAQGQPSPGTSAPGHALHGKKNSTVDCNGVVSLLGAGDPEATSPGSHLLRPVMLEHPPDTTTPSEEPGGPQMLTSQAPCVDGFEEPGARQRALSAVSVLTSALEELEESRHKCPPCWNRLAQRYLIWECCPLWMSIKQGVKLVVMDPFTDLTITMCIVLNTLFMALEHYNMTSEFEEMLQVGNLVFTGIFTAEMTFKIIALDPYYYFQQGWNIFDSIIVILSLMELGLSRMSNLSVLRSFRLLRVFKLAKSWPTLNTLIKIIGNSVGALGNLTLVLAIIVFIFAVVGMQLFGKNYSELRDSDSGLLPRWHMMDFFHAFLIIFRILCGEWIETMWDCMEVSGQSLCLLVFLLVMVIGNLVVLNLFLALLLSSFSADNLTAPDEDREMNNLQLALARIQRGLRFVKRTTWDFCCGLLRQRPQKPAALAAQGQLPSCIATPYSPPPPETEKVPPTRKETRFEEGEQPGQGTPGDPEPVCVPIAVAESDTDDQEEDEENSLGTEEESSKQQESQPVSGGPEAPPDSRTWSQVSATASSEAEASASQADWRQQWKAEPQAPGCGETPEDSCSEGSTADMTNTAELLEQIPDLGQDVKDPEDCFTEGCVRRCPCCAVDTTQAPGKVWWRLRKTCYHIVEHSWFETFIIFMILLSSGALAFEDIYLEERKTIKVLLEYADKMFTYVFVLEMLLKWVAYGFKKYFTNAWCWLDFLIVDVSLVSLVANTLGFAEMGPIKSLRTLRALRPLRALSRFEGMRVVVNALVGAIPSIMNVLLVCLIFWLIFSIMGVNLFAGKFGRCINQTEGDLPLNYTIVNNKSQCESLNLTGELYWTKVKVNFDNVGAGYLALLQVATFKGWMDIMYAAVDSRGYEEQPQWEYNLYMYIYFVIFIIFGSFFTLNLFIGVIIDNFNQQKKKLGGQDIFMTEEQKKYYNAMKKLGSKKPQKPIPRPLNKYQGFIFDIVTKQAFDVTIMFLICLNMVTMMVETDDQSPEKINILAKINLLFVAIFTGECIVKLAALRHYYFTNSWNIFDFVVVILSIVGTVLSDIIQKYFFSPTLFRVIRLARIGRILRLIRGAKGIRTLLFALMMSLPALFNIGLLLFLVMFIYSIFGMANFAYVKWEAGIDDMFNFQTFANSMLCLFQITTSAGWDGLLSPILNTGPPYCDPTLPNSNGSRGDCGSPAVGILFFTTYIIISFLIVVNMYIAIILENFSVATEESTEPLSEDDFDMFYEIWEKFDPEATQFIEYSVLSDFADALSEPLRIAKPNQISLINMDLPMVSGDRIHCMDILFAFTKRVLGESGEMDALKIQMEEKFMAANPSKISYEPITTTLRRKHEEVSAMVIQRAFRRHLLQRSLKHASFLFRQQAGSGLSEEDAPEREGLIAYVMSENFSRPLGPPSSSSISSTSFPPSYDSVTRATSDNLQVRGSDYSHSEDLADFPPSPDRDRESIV

One data set addresses Nav 1.5 (Homo sapiens (Human), UniProt Q14524). In words: in-vitro Nav 1.5 PX data. To be noted: read-out: Nav 1.5 PX IC50; PatchXpress (PX), in vitro.
As a reminder, the IC50 is the concentration needed to halve the response being measured. As for `COc1cc(-c2cc(F)cnc2OC)c(C#N)cc1-c1nccc2cc(S(=O)(=O)Nc3ccon3)ccc12` [Example 83, 1-(5-cyano-4-(5-fluoro-2-methoxy-3-pyridinyl)-2-methoxyphenyl)-N-3-isoxazolyl-6-isoquinolinesulfonamide], the IC50 was over 10 µM.

For `COc1cc(-c2ccc(C)c(F)c2)c(C#N)cc1-c1nccc2cc(S(=O)(=O)Nc3ccon3)ccc12` [Example 81, 1-(2-cyano-3′-fluoro-5-methoxy-4′-methyl-4-biphenylyl)-N-3-isoxazolyl-6-isoquinolinesulfonamide], the IC50 is over 10 µM.

Still in this data set, the particulars now being: read-out: Nav 1.5 PX IC50; in-vitro Nav 1.5 PX data.
As to `COc1cc(-c2cc(C)c(C)cc2C)c(C#N)cc1-c1nccc2cc(S(=O)(=O)Nc3ccncn3)ccc12` [Example 165, 1-(2-cyano-5-methoxy-2′,4′,5′-trimethyl-4-biphenylyl)-N-4-pyrimidinyl-6-isoquinolinesulfonamide], the IC50 is over 30 µM.

As to `COc1cc(-c2cc(C)cc(F)c2)c(C#N)cc1-c1nccc2cc(S(=O)(=O)Nc3ccncn3)ccc12` [Example 164, 1-(2-cyano-3′-fluoro-5-methoxy-5′-methyl-4-biphenylyl)-N-4-pyrimidinyl-6-isoquinolinesulfonamide], the half-inhibitory concentration (IC50) is over 30 µM.

The same data set, now with this note: read-out: Nav 1.5 PX IC50; in-vitro PX.
In the case of `COc1cc(-c2ccc(Cl)c(F)c2)c(C#N)cc1-c1nccc2cc(S(=O)(=O)Nc3nncs3)ccc12` [Example 224, 1-(4′-chloro-2-cyano-3′-fluoro-5-methoxy-4-biphenylyl)-N-1,3,4-thiadiazol-2-yl-6-isoquinolinesulfonamide], the IC50 is over 10 µM. For the molecule `COc1cc(-c2ccc(Cl)c(C)c2)c(C#N)cc1-c1nccc2cc(S(=O)(=O)Nc3nncs3)ccc12` [Example 228, 1-(4′-chloro-2-cyano-5-methoxy-3′-methyl-4-biphenylyl)-N-1,3,4-thiadiazol-2-yl-6-isoquinolinesulfonamide], the IC50 was over 10 µM. Turning to `COc1cc(-c2cccc(C(F)(F)F)c2)c(F)cc1-c1nn(C)c(=O)c2cc(S(=O)(=O)Nc3nncs3)ccc12` [Example 234, 1-(2-fluoro-5-methoxy-3′-(trifluoromethyl)-4-biphenylyl)-3-methyl-4-oxo-N-1,3,4-thiadiazol-2-yl-3,4-dihydro-6-phthalazinesulfonamide], the concentration for half-maximal inhibition (IC50) is over 10 µM. Take `COc1cc(-c2cccc(F)c2)c(Cl)cc1-c1ncnc2cc(S(=O)(=O)Nc3ccon3)ccc12` [Example 227, 4-(2-chloro-3′-fluoro-5-methoxy-4-biphenylyl)-N-3-isoxazolyl-7-quinazolinesulfonamide]: the concentration for half-maximal inhibition (IC50) is over 10 µM.

The same data set, now with this note: read-out: Nav 1.5 PX IC50; in-vitro PX (PatchXpress) data.
For `COc1ccc(F)cc1-c1cc(OC)c(-c2ncnc3cc(S(=O)(=O)Nc4ccon4)ccc23)cc1C` [Example 191, 4-(5′-fluoro-2′,5-dimethoxy-2-methyl-4-biphenylyl)-N-3-isoxazolyl-7-quinazolinesulfonamide], the IC50 is over 10 µM. Regarding `COc1cc(-c2ccc(F)c(C)n2)c(C)cc1-c1ncnc2cc(S(=O)(=O)Nc3ccon3)ccc12` [Example 33], the IC50 was over 10 µM.

Still in this data set, the particulars now being: read-out: Nav 1.5 PX IC50; in-vitro PX data.
On to `COc1cc(-c2cccc(Cl)c2)c(F)cc1-c1nccc2cc(S(=O)(=O)Nc3ccon3)ccc12` [Example 116, 1-(3′-chloro-2-fluoro-5-methoxy-4-biphenylyl)-N-3-isoxazolyl-6-isoquinolinesulfonamide], for which the IC50 was over 10 µM.

The target in the next data set is Nav 1.7 (Homo sapiens (Human), UniProt Q15858). The data set can be described thus: Nav 1.7 in vitro PX assay (PatchXpress whole cell voltage clamp).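 Further: holding potential set for 20 to 50% inactivation, sodium current evoked by a 20 ms step to −10 mV, peak current inhibition read after compound exposure, 3–5 cells per concentration.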 The class given is cell-based. Particulars: HEK 293 cells stably transfected with human Nav1.7; PatchXpress; partially inactivated state.
Sequence of Nav 1.7 (Q15858 whole entry): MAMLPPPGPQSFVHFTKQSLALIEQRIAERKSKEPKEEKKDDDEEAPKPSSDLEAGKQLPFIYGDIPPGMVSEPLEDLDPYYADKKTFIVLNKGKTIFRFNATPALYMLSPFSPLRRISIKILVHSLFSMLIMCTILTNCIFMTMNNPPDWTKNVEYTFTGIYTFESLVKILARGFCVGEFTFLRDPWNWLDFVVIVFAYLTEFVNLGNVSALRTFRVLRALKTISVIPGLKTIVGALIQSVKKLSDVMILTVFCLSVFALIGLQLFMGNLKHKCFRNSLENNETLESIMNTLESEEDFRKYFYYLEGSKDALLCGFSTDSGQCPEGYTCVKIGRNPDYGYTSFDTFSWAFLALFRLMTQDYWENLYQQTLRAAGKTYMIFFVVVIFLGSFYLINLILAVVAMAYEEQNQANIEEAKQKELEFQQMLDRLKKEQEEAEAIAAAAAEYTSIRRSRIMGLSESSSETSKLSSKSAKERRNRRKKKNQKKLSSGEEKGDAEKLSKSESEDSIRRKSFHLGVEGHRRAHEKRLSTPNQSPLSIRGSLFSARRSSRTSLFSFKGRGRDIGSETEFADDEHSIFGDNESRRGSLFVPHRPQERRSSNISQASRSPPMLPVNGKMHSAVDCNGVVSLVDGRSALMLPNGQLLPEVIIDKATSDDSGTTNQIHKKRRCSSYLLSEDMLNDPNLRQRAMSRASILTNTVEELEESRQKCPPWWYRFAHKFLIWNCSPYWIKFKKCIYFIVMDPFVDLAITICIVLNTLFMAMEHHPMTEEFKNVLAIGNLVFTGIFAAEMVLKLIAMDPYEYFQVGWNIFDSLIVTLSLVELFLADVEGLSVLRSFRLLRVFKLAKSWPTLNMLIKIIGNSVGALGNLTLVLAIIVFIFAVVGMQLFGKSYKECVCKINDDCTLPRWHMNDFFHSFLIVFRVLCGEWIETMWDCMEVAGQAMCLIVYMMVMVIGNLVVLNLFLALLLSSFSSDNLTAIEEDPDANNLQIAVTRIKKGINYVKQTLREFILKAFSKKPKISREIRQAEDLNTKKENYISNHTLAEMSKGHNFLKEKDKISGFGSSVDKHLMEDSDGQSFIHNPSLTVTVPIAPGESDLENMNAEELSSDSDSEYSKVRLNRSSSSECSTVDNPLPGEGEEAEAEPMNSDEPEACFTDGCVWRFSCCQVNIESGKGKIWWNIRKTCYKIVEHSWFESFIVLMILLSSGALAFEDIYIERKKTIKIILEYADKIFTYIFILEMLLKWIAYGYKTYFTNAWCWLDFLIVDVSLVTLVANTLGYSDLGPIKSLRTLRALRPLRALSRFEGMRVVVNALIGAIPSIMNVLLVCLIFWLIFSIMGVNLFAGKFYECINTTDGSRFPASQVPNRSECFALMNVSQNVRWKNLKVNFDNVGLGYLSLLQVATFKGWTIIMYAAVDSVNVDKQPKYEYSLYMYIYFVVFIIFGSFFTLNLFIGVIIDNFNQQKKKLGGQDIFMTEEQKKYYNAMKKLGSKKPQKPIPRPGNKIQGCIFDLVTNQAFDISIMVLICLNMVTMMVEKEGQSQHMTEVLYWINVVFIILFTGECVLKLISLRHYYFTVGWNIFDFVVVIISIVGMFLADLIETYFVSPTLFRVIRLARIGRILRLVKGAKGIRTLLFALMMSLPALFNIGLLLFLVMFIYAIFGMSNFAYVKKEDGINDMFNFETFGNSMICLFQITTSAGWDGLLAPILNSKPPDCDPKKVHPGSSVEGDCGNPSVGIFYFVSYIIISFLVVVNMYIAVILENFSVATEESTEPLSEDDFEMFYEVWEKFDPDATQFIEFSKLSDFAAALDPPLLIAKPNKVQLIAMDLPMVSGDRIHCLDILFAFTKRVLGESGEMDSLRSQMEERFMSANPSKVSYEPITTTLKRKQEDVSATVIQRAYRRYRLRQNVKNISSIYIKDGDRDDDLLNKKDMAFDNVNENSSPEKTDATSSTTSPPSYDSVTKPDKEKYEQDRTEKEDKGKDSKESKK
`COc1cc(-c2cccc(F)c2)c(Cl)cc1-c1c(O)cnc2cc(S(=O)(=O)Nc3ccon3)ccc12` (atropisomer, axis not shown; (M)) [Example 337, (M)-4-(2-chloro-3′-fluoro-5-methoxy-[1,1′-biphenyl]-4-yl)-3-hydroxy-N-(isoxazol-3-yl)quinoline-7-sulfonamide] showed an IC50 of 0.071 µM. The molecule `COc1cc(-c2cc(F)cc(Cl)c2)c(F)cc1-c1[nH]c(=O)cc2cc(S(=O)(=O)Nc3ccon3)ccc12` [Example 547, 1-(3′-chloro-2,5′-difluoro-5-methoxy-4-biphenylyl)-N-3-isoxazolyl-3-oxo-2,3-dihydro-6-isoquinolinesulfonamide] registered an IC50 of 0.02 µM. The molecule `COc1cc(-c2ccc(Cl)c(C)c2)c(F)cc1-c1[nH]c(=O)cc2cc(S(=O)(=O)Nc3ccon3)ccc12` [Example 548, 1-(4′-chloro-2-fluoro-5-methoxy-3′-methyl-4-biphenylyl)-N-3-isoxazolyl-3-oxo-2,3-dihydro-6-isoquinolinesulfonamide] gave an IC50 of 0.016 µM. Same read-out and setting: in the case of `COc1cc(-c2cccc(C(F)(F)F)c2)c(F)cc1-c1c2ccc(S(=O)(=O)Nc3ccon3)cc2cc(=O)n1C` (atropisomer, axis not shown; (M)) [Example 552, (M)-1-(2-fluoro-5-methoxy-3′-(trifluoromethyl)-4-biphenylyl)-N-3-isoxazolyl-2-methyl-3-oxo-2,3-dihydro-6-isoquinolinesulfonamide] it was 1.25 µM; in that of `COc1cc(-c2cccc(Cl)c2)c(F)cc1-c1c[nH]c(=O)c2cc(S(=O)(=O)Nc3ccon3)ccc12` [Example 343, 4-(3′-chloro-2-fluoro-5-methoxy-[1,1′-biphenyl]-4-yl)-N-(isoxazol-3-yl)-1-oxo-1,2-dihydroisoquinoline-7-sulfonamide], 0.163 µM; in that of `COc1cc(-c2cccc(F)c2)c(Cl)cc1-c1cn(C)c(=O)c2cc(S(=O)(=O)Nc3ccon3)ccc12` [Example 328, 4-(2-chloro-3′-fluoro-5-methoxy-[1,1′-biphenyl]-4-yl)-N-(isoxazol-3-yl)-2-methyl-1-oxo-1,2-dihydroisoquinoline-7-sulfonamide trifluoromethanesulfonate], 0.068 µM.

As to `COc1cc(-c2cccc(F)c2F)c(C)cc1-c1ncnc2cc(S(=O)(=O)Nc3ccon3)ccc12` [Example 562, 4-(2′,3′-difluoro-5-methoxy-2-methyl-4-biphenylyl)-N-3-isoxazolyl-7-quinazolinesulfonamide], half-maximal inhibition (IC50) required 0.09 µM.

Molecule `COc1cc(-c2cccc(C(F)(F)F)c2)c(C#N)cc1-c1nccc2cc(S(=O)(=O)Nc3ncc(F)cn3)ccc12` [Example 374, 1-(2-Cyano-5-methoxy-3′-(trifluoromethyl)-[1,1′-biphenyl]-4-yl)-N-(5-fluoropyrimidin-2-yl)isoquinoline-6-sulfonamide] had a concentration for half-maximal inhibition (IC50) of 0.094 µM.

As for `COc1cc(-c2cccc(F)c2)c(Cl)cc1-c1c(C)cnc2cc(S(=O)(=O)Nc3ccon3)ccc12` (atropisomer, axis not shown; (M)) [Example 330, (M)-4-(2-chloro-3′-fluoro-5-methoxy-[1,1′-biphenyl]-4-yl)-N-(isoxazol-3-yl)-3-methylquinoline-7-sulfonamide], the IC50 came out at 0.496 µM.

`COc1cc(-c2cccc(F)c2)c(Cl)cc1-c1c(C)ncc2cc(S(=O)(=O)Nc3ccon3)ccc12` (atropisomer, axis not shown; (P)) [Example 318, (P)-4-(2-chloro-3′-fluoro-5-methoxy-4-biphenylyl)-N-3-isoxazolyl-3-methyl-7-isoquinolinesulfonamide]: inhibition was half-maximal at 1.39 µM (IC50). Take `COc1cc(-c2cc(C)ccc2F)c(C)cc1-c1ncnc2cc(S(=O)(=O)Nc3ccon3)ccc12` [Example 556, 4-(2′-fluoro-5-methoxy-2,5′-dimethyl-4-biphenylyl)-N-3-isoxazolyl-7-quinazolinesulfonamide]: the IC50 turned out to be 0.113 µM. The same measure, in the same setting: in the case of `COc1cc(-c2cccc(F)c2)c(Cl)cc1-c1c(O)cnc2cc(S(=O)(=O)Nc3ccon3)ccc12` (atropisomer, axis not shown; (P)) [Example 338, (P)-4-(2-chloro-3′-fluoro-5-methoxy-[1,1′-biphenyl]-4-yl)-3-hydroxy-N-(isoxazol-3-yl)quinoline-7-sulfonamide] it was 0.041 µM; in that of `COc1cc(-c2cccc(F)c2)c(Cl)cc1-c1c(=O)n(C)cc2cc(S(=O)(=O)Nc3ccon3)ccc12` [Example 402, 4-(2-CHLORO-3′-FLUORO-5-METHOXY-[1,1′-BIPHENYL]-4-YL)-N-(ISOXAZOL-3-YL)-2-METHYL-3-OXO-2,3-DIHYDROISOQUINOLINE-7-SULFONAMIDE], 0.039 µM.

Staying with this data set, now noted: PatchXpress (PX).
The molecule `COc1ccc(Cl)cc1-c1cc(OC)c(-c2ncnc3cc(S(=O)(=O)Nc4ccon4)ccc23)cc1C` [Example 266, 4-(5′-chloro-2′,5-dimethoxy-2-methyl-4-biphenylyl)-N-3-isoxazolyl-7-quinazolinesulfonamide] gave a half-inhibitory concentration (IC50) of 0.0181 µM.

Molecule `COc1cc(-c2cc(F)cc(F)c2)c(C)cc1-c1ncnc2cc(S(=O)(=O)Nc3ccon3)ccc12` [Example 61, 4-(3′,5′-DIFLUORO-5-METHOXY-2-METHYL-[1,1′-BIPHENYL]-4-YL)-N-(ISOXAZOL-3-YL)QUINAZOLINE-7-SULFONAMIDE] showed an IC50 of 0.0504 µM.

The same data set, now with this note: in-vitro Nav 1.7 PX (PatchXpress).
Molecule `COc1cc(-c2ccc(Cl)c(F)c2)c(C)cc1-c1nccc2cc(S(=O)(=O)Nc3ccon3)ccc12` [Example 286, 1-(4′-chloro-3′-fluoro-5-methoxy-2-methyl-4-biphenylyl)-N-3-isoxazolyl-6-isoquinolinesulfonamide] returned an IC50 of 0.188 µM. For `COc1cc(-c2ccc(C)c(Cl)c2)ccc1-c1nccc2cc(S(=O)(=O)Nc3ccon3)ccc12` [Example 287, 1-(3′-chloro-3-methoxy-4′-methyl-4-biphenylyl)-N-3-isoxazolyl-6-isoquinolinesulfonamide], half-maximal inhibition (IC50) was put at 0.111 µM. In the case of `COc1cc(-c2cc(F)cnc2OC)c(C)cc1-c1nccc2cc(S(=O)(=O)Nc3ccon3)ccc12` [Example 279, 1-(4-(5-fluoro-2-methoxy-3-pyridinyl)-2-methoxy-5-methylphenyl)-N-3-isoxazolyl-6-isoquinolinesulfonamide], the IC50 came to 0.063 µM.

For `COc1cc(-c2ccc(F)c(C3CC3)c2)c(C)cc1-c1ncnc2cc(S(=O)(=O)Nc3ccon3)ccc12` [Example 63, 4-(3′-CYCLOPROPYL-4′-FLUORO-5-METHOXY-2-METHYL-[1,1′-BIPHENYL]-4-YL)-N-(ISOXAZOL-3-YL)QUINAZOLINE-7-SULFONAMIDE], the IC50 stood at 0.034 µM.
